Measured values as given in ChEMBL document CHEMBL1201862, “PubChem BioAssay data set” (2004).
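Compound exposure: 48 hours, 5 concentrations, 96-well plates. Here, GI50 denotes the concentration required for 50% inhibition of growth.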 Active and inactive are the calls of the source. Rule as the data show it: active = GI50 up to about 1.1 µM and inactive = higher.

How the values were obtained:
Test in all cases: inhibition of tumour cell growth, NCI panel, 48 h
TK-10 = test system: TK-10
SNB-19 = test system: SNB-19
NCI-H23 = test system: NCI-H23
SF-539 = test system: SF-539
SF-295 = test system: SF-295
UACC-62 = test system: UACC-62
Hs-578T = test system: Hs-578T
SK-MEL-2 = test system: SK-MEL-2
SR = test system: SR
COLO 205 = test system: COLO 205
SK-MEL-28 = test system: SK-MEL-28
PC-3 = test system: PC-3
LOX IMVI = test system: LOX IMVI
HOP-62 = test system: HOP-62
SN12C = test system: SN12C
NCI/ADR-RES = test system: NCI/ADR-RES
NCI-H522 = test system: NCI-H522
HT-29 = test system: HT-29
K562 = test system: K562
HOP-92 = test system: HOP-92

Measured: GI50

COc1ccc2oc(=O)c3c(c2c1C)OC(C)(C)C=C3
inactive: TK-10 > 100 µM | SNB-19 > 100 µM | NCI-H23 > 100 µM | SF-539 > 100 µM | SF-295 > 100 µM | UACC-62 > 100 µM | Hs-578T > 100 µM | SK-MEL-2 > 100 µM | SR > 100 µM | COLO 205 > 100 µM | SK-MEL-28 > 100 µM | PC-3 > 100 µM | LOX IMVI > 100 µM | HOP-62 > 100 µM | SN12C > 100 µM | NCI/ADR-RES > 100 µM | NCI-H522 > 100 µM | HT-29 > 100 µM | K562 > 100 µM

O=[N+]([O-])c1ccc(-c2cn(-c3ccc(Cl)cc3)cn2)cc1
inactive: TK-10 40.3 µM | SNB-19 67 µM | NCI-H23 20.4 µM | SF-539 3.8 µM | SF-295 18.7 µM | UACC-62 92 µM | Hs-578T 41.6 µM | SK-MEL-2 > 100 µM | SR > 100 µM | COLO 205 > 100 µM | SK-MEL-28 > 100 µM | PC-3 > 100 µM | LOX IMVI 56.4 µM | HOP-62 18.2 µM | SN12C 41.3 µM | NCI/ADR-RES 36.6 µM | NCI-H522 3.76 µM | HT-29 > 100 µM | K562 > 100 µM

CCOc1cc2c(=O)oc3c(OC)ccc4ccc(c1OC)c2c43
inactive: TK-10 > 100 µM | SNB-19 59.2 µM | NCI-H23 73.5 µM | SF-539 > 100 µM | SF-295 96.8 µM | UACC-62 > 100 µM | Hs-578T 44.8 µM | SK-MEL-2 > 100 µM | COLO 205 > 100 µM | HOP-92 > 100 µM | SK-MEL-28 > 100 µM | PC-3 > 100 µM | LOX IMVI > 100 µM | HOP-62 46.5 µM | SN12C > 100 µM | NCI/ADR-RES 36.2 µM | NCI-H522 16.7 µM | HT-29 97.5 µM | K562 > 100 µM

C/C(=N/NC(=S)N1CCCC1)c1cccc(/C(C)=N\NC(=S)N2CCCC2)n1
active: SF-295 0.548 µM | SR 0.0944 µM | COLO 205 0.785 µM | PC-3 0.076 µM | LOX IMVI 0.0847 µM | HOP-62 0.378 µM | HT-29 0.0318 µM | K562 0.0468 µM
inactive: TK-10 1.39 µM | SNB-19 2.57 µM | NCI-H23 1.88 µM | SF-539 1.36 µM | UACC-62 2.25 µM | Hs-578T 3.49 µM | SK-MEL-2 1.7 µM | SK-MEL-28 1.97 µM | SN12C 1.14 µM | NCI/ADR-RES 1.96 µM | NCI-H522 1.8 µM

[N-]=[N+]=NC(c1ccccc1)(c1ccccc1)c1ccccc1
inactive: TK-10 17.5 µM | SNB-19 18.4 µM | NCI-H23 16.5 µM | SF-539 16.9 µM | SF-295 12.1 µM | UACC-62 15.4 µM | Hs-578T 22.8 µM | SK-MEL-2 15.5 µM | COLO 205 14.6 µM | HOP-92 17.1 µM | SK-MEL-28 18.4 µM | PC-3 15.2 µM | LOX IMVI 19.1 µM | HOP-62 19.5 µM | SN12C 16.7 µM | NCI/ADR-RES 16.7 µM | NCI-H522 16.5 µM | HT-29 16 µM | K562 14.8 µM

CC(=O)OC(C)(C)/C=C/C(=O)[C@](C)(O)[C@H]1[C@H](O)C[C@@]2(C)[C@@H]3CC=C4[C@@H](C=C(O)C(=O)C4(C)C)[C@]3(C)C(=O)C[C@]12C [CUCURBITACIN E]
active: TK-10 0.0479 µM | SNB-19 0.057 µM | NCI-H23 0.055 µM | SF-539 0.023 µM | SF-295 0.0348 µM | UACC-62 0.065 µM | Hs-578T 0.0473 µM | SK-MEL-2 0.0139 µM | COLO 205 0.0191 µM | HOP-92 0.0302 µM | SK-MEL-28 0.024 µM | PC-3 0.259 µM | LOX IMVI 0.0101 µM | HOP-62 0.0408 µM | SN12C 0.0394 µM | NCI/ADR-RES 0.129 µM | NCI-H522 0.0407 µM | HT-29 0.0202 µM | K562 0.0681 µM

CCCCCCCC1C(C)c2c([nH]c3ccccc23)C2C(=O)N(c3ccc(OC)cc3)C(=O)C21 (stereo not drawn)
inactive: TK-10 2.38 µM | SNB-19 3.31 µM | NCI-H23 2.39 µM | SF-539 2.69 µM | SF-295 2.58 µM | UACC-62 4.24 µM | Hs-578T 2 µM | SK-MEL-2 > 6.59 µM | SR 2.84 µM | COLO 205 3.78 µM | HOP-92 > 10 µM | SK-MEL-28 5.48 µM | PC-3 4.68 µM | HOP-62 2.7 µM | SN12C 2.59 µM | NCI/ADR-RES 1.7 µM | NCI-H522 4.48 µM | HT-29 2.63 µM | K562 3.11 µM
